# Measurements as given in patent US8299103B2, “Compounds which selectively modulate the CB2 receptor” (Boehringer Ingelheim International GmbH, priority 2009, dated 2012).
# Read-outs that look alike come from different tables or passages of the source.
# How the values were obtained:
# [1] = biological target: T1, human CB1R (Homo sapiens, UniProt P21554); assay: CB1R mediated modulation of cAMP synthesis; format: cell-based
# T1 construct: host or cells: CHO cells
# Method: C. CB1R Mediated Modulation of cAMP Synthesis:
# Compounds of the invention are evaluated for their CB1 agonist or inverse agonistic activity in accordance with the following experimental method.
# (§1) CHO cells expressing human CB1R (Euroscreen) are plated at a density of 5000 cells per well in 384 well plates and incubated overnight at 37° C. After removing the media, the cells are treated with test compounds diluted in stimulation buffer containing 1 mM IBMX, 0.25% BSA and 10 uM Forskolin. The assay is incubated for 30 minutes at 37° C. Cells are lysed and the cAMP concentration is measured using DiscoverX-XS cAMP kit, following the manufacturer's protocol. In this setting, agonists will decrease forskolin induced production of cAMP while inverse agonists will further increase forskolin induced production of cAMP. EC50 of agonists are calculated as follows. The maximal amount of cAMP produced by forskolin compared to the level of cAMP inhibited by 1 uM CP55940 is defined as 100%. The EC50 value of each test compound is determined as the concentration at which 50% of the forskolin-stimulated cAMP synthesis is inhibited. Data is analyzed using a four-parameter logistic model. (Model 205 of XLfit 4.0).
# [2] = biological target: T2, human CB2R (Homo sapiens, UniProt P34972); assay: CB2R mediated modulation of cAMP synthesis; format: cell-based
# T2 construct: host or cells: CHO cells
# Method: B. CB2R Mediated Modulation of cAMP Synthesis:
# Compounds of the invention are evaluated for their CB2 agonist or inverse agonistic activity in accordance with the following experimental method.
# as §1, with “CB2R” for “CB1R”
# [3] = CHO cells expressing human CB1R, inhibition of forskolin-stimulated cAMP synthesis, read-out: CB1 EC50
# [4] = CHO cells expressing human CB2R, inhibition of forskolin-stimulated cAMP synthesis, read-out: CB2 EC50
# T2 sequence (P34972 whole entry): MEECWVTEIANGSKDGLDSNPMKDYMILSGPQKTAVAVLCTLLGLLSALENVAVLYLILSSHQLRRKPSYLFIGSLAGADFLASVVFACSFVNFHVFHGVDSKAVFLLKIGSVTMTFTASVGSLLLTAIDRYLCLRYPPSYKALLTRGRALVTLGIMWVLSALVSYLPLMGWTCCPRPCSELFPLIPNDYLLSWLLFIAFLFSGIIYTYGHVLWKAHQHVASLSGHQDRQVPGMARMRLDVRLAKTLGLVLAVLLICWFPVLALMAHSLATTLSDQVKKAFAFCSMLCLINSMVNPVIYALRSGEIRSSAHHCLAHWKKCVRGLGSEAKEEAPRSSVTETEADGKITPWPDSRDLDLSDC
# T1 sequence (P21554 whole entry): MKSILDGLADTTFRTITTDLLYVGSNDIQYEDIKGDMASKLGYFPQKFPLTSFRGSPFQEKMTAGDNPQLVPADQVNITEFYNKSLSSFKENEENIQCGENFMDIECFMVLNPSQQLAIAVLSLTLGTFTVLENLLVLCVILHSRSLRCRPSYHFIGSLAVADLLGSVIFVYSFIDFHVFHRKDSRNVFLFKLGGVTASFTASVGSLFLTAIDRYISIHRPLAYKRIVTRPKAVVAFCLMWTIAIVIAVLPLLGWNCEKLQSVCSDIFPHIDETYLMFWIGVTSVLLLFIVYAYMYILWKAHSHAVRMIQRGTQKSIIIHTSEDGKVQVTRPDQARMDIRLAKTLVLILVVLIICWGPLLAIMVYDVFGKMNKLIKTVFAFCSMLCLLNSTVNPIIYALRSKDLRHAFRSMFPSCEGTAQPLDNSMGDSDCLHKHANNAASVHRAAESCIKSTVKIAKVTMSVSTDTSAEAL
SMILES,"EC50 [1, 3] [nM]","EC50 [2, 4] [nM]",EC50 [1] [nM],EC50 [2] [nM],also measured
COCC(C)(C)c1cc(NC(=O)C(C)(C)NC2CCOCC2)on1,> 20000,313,–,–,–
CN(C1CCOCC1)C(C)(C)C(=O)Nc1cc(C(C)(C)CO)no1,–,–,> 50000,56,–
CC(C)(CO)c1cc(NC(=O)C(C)(C)N2CCCCC2)on1,–,–,22000,28,–
CC(C)N(C)C(C)(C)C(=O)Nc1cc(C(C)(C)CO)no1,> 50000,244,–,–,–
CC(C)(NC1CCN(S(C)(=O)=O)CC1)C(=O)Nc1cc(C(C)(C)CO)no1,> 50000,302,–,–,–
COCC(C)(C)c1cc(NC(=O)C(C)(C)NCC2CCOCC2)no1,> 20000,132,–,–,–
COCC(C)(C)c1cc(NC(=O)C(C)(C)NC2CCOCC2)no1,> 20000,337,–,–,–
COCCOCC(C)(C)c1cc(NC(=O)C(C)(C)N(C)C2CCOCC2)on1,> 50000,246,–,–,–
C[C@H](O)C(C)(C)c1cc(NC(=O)C(C)(C)N(C)C2CCOCC2)on1,–,–,44700,28,–
CN(C1CCOCC1)C(C)(C)C(=O)Nc1cc(C2(CO)CCCC2)no1,–,–,21500,21,–
CN(C1CCOCC1)C(C)(C)C(=O)Nc1cc(C2(CO)CCC2)no1,–,–,> 50000,66,–
COCCOC(C)(C)c1cc(NC(=O)C(C)(C)N(C)C2CCOCC2)on1,–,–,> 50000,93,–
CN(CC1CCOCC1)C(C)(C)C(=O)Nc1cc(C2(O)CC2)no1,–,–,> 50000,13,–
CN(CC1CCOCC1)C(C)(C)C(=O)Nc1nnc(C(C)(C)CO)s1,> 50000,11,–,–,–
Cc1ncc(C(C)(C)c2cc(NC(=O)C(C)(C)N(C)C3CCOCC3)on2)o1,–,–,20800,15,–
CN(C1CCOCC1)C(C)(C)C(=O)Nc1cc(C(C)(C)C2CCOCC2)no1,–,–,> 50000,44,–
CC(C)(NCCCC(F)(F)F)C(=O)Nc1cc(C(C)(C)OCCO)no1,> 50000,109,–,–,–
CC(C)(NCCCC(F)(F)F)C(=O)Nc1cc(C2(CO)CCC2)no1,–,–,> 50000,54,–
CC(C)(NCC1CCOCC1)C(=O)Nc1cc(C(C)(C)COC2CCCCO2)no1 (centres unmarked),> 50000,201,–,–,–
CC(C)(NCC1CCOCC1)C(=O)Nc1cc(C(C)(C)CO)no1,> 50000,374,–,–,–
CC(C)(NCCCC(F)(F)F)C(=O)Nc1cc(C(C)(C)CO)no1,–,–,> 50000,31,–

SMILES,"EC50 [1, 3] [nM]","EC50 [2, 4] [nM]",EC50 [1] [nM],EC50 [2] [nM],also measured
CN(C(=O)CC1CCOCC1)C(C)(C)C(=O)Nc1cc(C(C)(C)CO)no1,–,–,> 50000,27,–
CC(C)(NCCC1CCOCC1)C(=O)Nc1cc(C(C)(C)CO)no1,> 50000,113,–,–,–
CC(C)(CO)c1cc(NC(=O)C(C)(C)N2CC[C@@H](O)C2)on1,> 50000,494,–,–,–
CC[C@H](C)N(C)C(C)(C)C(=O)Nc1cc(C(C)(C)CO)no1,> 50000,220,–,–,–
CN(CC1CC1)C(C)(C)C(=O)Nc1cc(C(C)(C)CO)no1,–,–,36000,12,–
CC(C)(N[C@H]1CC[C@@H](O)CC1)C(=O)Nc1cc(C(C)(C)CO)no1,> 50000,300,–,–,–
CC(C)(N[C@H]1CC[C@@H](NS(C)(=O)=O)CC1)C(=O)Nc1cc(C(C)(C)CO)no1,–,–,> 50000,42,–
CC(C)(CO)c1cc(NC(=O)C(C)(C)N2CCC(NS(C)(=O)=O)CC2)on1,–,–,> 50000,7.1,–
CN(C[C@H]1CCCN(S(C)(=O)=O)C1)C(C)(C)C(=O)Nc1cc(C(C)(C)CO)no1,> 50000,126,–,–,–
CN(CC1CCOC1)C(C)(C)C(=O)Nc1cc(C(C)(C)CO)no1 (centres unmarked),–,–,> 50000,29,–
CN(C(=O)C[C@H]1CCOC1)C(C)(C)C(=O)Nc1cc(C(C)(C)CO)no1,–,–,> 50000,25,–
CN(C1CC1)C(C)(C)C(=O)Nc1cc(C(C)(C)CO)no1,–,–,–,446,–
CN(C1CCOCC1)C(C)(C)C(=O)Nc1cc(C(C)(C)COCCO)no1,–,–,37600,15,–
Cc1ncc(C(C)(C)c2cc(NC(=O)C(C)(C)NC3CCN(S(C)(=O)=O)CC3)on2)s1,> 50000,195,–,–,–
CN(C(=O)CCC(F)(F)F)C(C)(C)C(=O)Nc1cc(C(C)(C)CO)no1,–,–,> 50000,69,–
CN([C@@H]1CCN(S(C)(=O)=O)C1)C(C)(C)C(=O)Nc1cc(C(C)(C)CO)no1,–,–,> 20000,1.7,–
CN([C@H]1CCN(S(C)(=O)=O)C1)C(C)(C)C(=O)Nc1cc(C(C)(C)CO)no1,–,–,> 50000,28,–
CN(C[C@H]1COCCO1)C(C)(C)C(=O)Nc1cc(C(C)(C)CO)no1,–,–,> 50000,68,–
CN(C[C@@H]1COCCO1)C(C)(C)C(=O)Nc1cc(C(C)(C)CO)no1,–,–,> 50000,40,–
CN(C(=O)CCCC(F)(F)F)C(C)(C)C(=O)Nc1cc(C(C)(C)CO)no1,–,–,32100,27,–
CC(C)(NC1CCC(NS(C)(=O)=O)CC1)C(=O)Nc1nnn(C(C)(C)C)n1 (centres unmarked),–,–,–,–,"EC50 ([1]; read-out: CB1 EC50, CHO cells expressing human CB1R, inhibition of forskolin-stimulated cAMP synthesis): > 50000 nM; EC50 ([2]; read-out: CB2 EC50, CHO cells expressing human CB2R, inhibition of forskolin-stimulated cAMP synthesis): 33 nM"
